Several values for one entry are separate records, joined by “and”; a condition that tells them apart may be missing. Identical values can stand only once. Entries after “also recorded” stand apart in the source; their conditions may differ. Where no end group is shown, it is not given here.
Tests used:
Format in all cases: cell-based, human
[1] = system: stage 4 neural stem cells; test: HD-DoE 8-factor experiment for stage 5 recipe (Forskolin, Arachidonic acid, VPA, BDNF, BT13, O-LPA, GW7646, Sodium pyruvate), optimized for PVALB
Procedure: To further guide the differentiation of forebrain-committed neural stem cells to PVALB interneuron cells, an additional HD-DoE experiment was performed for 3 days on cells that were treated with stage 1 to stage 4 media for total of 12 days prior to start of the experiment. This experiment included 8 effectors, Forskolin, Arachidonic acid, VPA, BDNF, BT13, O-LPA, GW7646, and Sodium pyruvate. In this model, we focused on maximum expression of PVALB gene expressed in PVALB (+) interneurons (Nahar et al. (2021) Front. Psych. 12:679960). When the model was optimized for maximum expression of PVALB, Forskolin, GW7646, Sodium Pyruvate had the highest factor contributions, 3.14, 27.2, and 17.1 respectively (FIG. 25).
So, it was excluded in the recipe.

[2] = system: forebrain-committed neural stem cells (stage 1 neural stem cells); test: HD-DoE 12-factor experiment for stage 2 recipe, optimized for NKX2-1; settings: model maximized for NKX2-1 / dynamic profile, FIG. 7 and 8
Procedure: To further guide the differentiation of forebrain-committed neural stem cells to ventral forebrain neural stem cells at stage 2, a HD-DoE experiment was performed for 3 days after termination of stage 1 treatment. At this time, we focused on maximum expression of NKX2-1 that is expressed in ventral forebrain region and minimum expression of PAX6 that is expressed in dorsal forebrain region. This 12-factor experiment included LDN193189, BMP7, PD0325901, MK2206, A8301, XAV939, CHIR99021, Purmorphamine, SANT-1, AGN193109, TTNPB and GSI-XX.

[3] = system: stage 2 neural stem cells (cells treated with stage 1 and stage 2 media); test: HD-DoE experiment for stage 3 recipe, optimized for ASCL1; settings: for factor contribution on expression of ASCL1: positive, model optimized for maximum expression of ASCL1 at 1700, FIG. 9
Procedure: To further guide the cells to medial ganglionic eminence progenitor fate, an additional HD-DoE experiment was performed for 3 days on cells that were treated with stage 1 and stage 2 media for total of 6 days prior to start of the experiment. This experiment included 13 effectors, LDN193189, A8301, GNF5837, AZD3147, GSI-XX, Takinib, PD0325901, PD173074, BLU9931, IGF-1, MHY1485, Purmorphamine and Prostratin. In this model, we focused on maximum expression of genes expressed in neuronal progenitor cells in medial ganglionic eminence (MGE) region including ASCL1, LHX6 and DLX1 (Silberberg et al. (2016) Neuron 92:59-74). When the model was optimized for maximum expression of ASCL1 at 1700, A8301, GSI-XX, Purmorphamine and Takinib, which is an inhibitor of TAK1 pathway, had the highest factor contributions, 18.1, 14.1, 12.7 and 10.1 respectively. […]

[4] = system: stage 2 neural stem cells; test: factor criticality analysis (dynamic profile analysis) of stage 3 recipe; parameters: unit not given here; settings: other five factors present; for expression level of DLX1 when the effector is removed: 220 with all six factors; for expression level of LHX6 when the effector is removed: 240 with all six factors; for expression level of ASCL1 when the effector is removed: 1650 with all six factors
Procedure: To assess the impact of the elimination of each validated factor, dynamic profile analysis was used and compared the expression level of genes of interest in absence of each finalized factor while others are present. […] In the stage 3 recipe, each of the six finalized factors were removed while the other five factors remained present and the expression levels of ASCL1, DLX1 and LHX6 were assessed compared to the presence of all six factors. […] As expected, in the absence of IGF-1, the value of DLX1 increases to 410, however, ASCL1 and LHX6 decreased to 1390 and 220, respectively.

[5] = system: MGE progenitor cells; test: HD-DoE 12-factor experiment for stage 4 recipe, optimized for MEF2C; settings: for impact on expression of MEF2C: dynamic profile analysis, FIG. 20
Excerpt: These effectors are small molecules or proteins. They are commonly used during stepwise differentiation of stem cells to specific fates. The choice of the effectors was based on current literature on neural induction in forebrain region of developing brain and differentiation of stem cells to neural progenitors.
To evaluate the effectors, experiments with at least 8 factors were designed that can assess the response of cells to 48 or more different combinations of effectors in a range of concentrations. To analyze the models, we focused on expression of genes involved in development and patterning of the forebrain interneurons maturation including LHX6 (Yuan et al. (2018) Elife, 7:e37382), DLX5 (Wang et al. (2010) J. Neuroscience 30:5334-5345), ASCL1 (Shi et al. (2016) J. Biol. Chem. 291:13560-13570). At later stages we focused on interneuron maturation genes including Parvalbumin and absence of somatostatin (Horn and Nicoll (2018) Proc. Natl. Acad. Sci. 115:589-594). The impacts of each effector on gene expression level are defined by a parameter called factor contribution that is calculated for each effector during the modeling.
To identify the recipe of stage 4 of differentiation, 48 different combinations of effectors generated using Design-of-Experiments compression through D-optimality were robotically prepared. The effector combinations were prepared in a basal media and were subsequently added to the cells, which were then allowed to differentiate. Three days later RNA extraction was performed, and gene expression was obtained using quantitative PCR analysis. The data was normalized and modeled using partial least squares regression analysis to the effector design, resulting in the generation of gene-specific models, which after model tuning for maximal predictive power, provided explanation of the effectors ability to control the expression of individual genes, combinatorically, and individually. Solutions within the tested space could then be explored to address desirability. […] Valproic Acid can inhibit histone deaceylases and increase γ-aminobutyric acid (GABA). […] GDNF is the […] Glial cell line-derived neurotrophic factor and can activate the GDNF pathway.
To find the set of factors that have the potential to optimize MEF2C in this experiment, a new assessment was done through dynamic profile analysis with focus on maximal expression of MEF2C (FIG. 20).

[6] = system: stage 4 neural stem cells; test: HD-DoE 8-factor experiment for stage 5 recipe (Prostratin, Rosiglitazone, GSI-XX, Heparin, GW0742, N2, THI0019, GDNF), optimized for PVALB; settings: for impact on expression of PVALB: dynamic profile analysis, FIG. 24; for factor contribution on expression of PVALB: positive, model optimized for maximum expression of PVALB, FIG. 23
Procedure: To investigate effect of other factors on differentiation of forebrain-committed neural stem cells to PVALB interneuron cells, an additional HD-DoE experiment was performed for 3 days on cells that were treated with stage 1 to stage 4 media for total of 12 days prior to start of the experiment. This experiment included eight effectors, Prostratin, Rosiglitazone, GSI-XX, Heparin, GW0742, N2, THI0019, and GDNF. In this model, we focused on maximum expression of PVALB gene expressed in PVALB (+) interneurons (Nahar et al. (2021) Front. Psych. 12:679960). When model was optimized for maximum expression of PVALB, Prostratin, GW0742, N2, and GDNF had the highest factor contributions, 13.56, 19.499, 15.9 and 8.2 respectively (FIG. 23).
So, they were excluded in the recipe.

[7] = system: MGE progenitor cells; test: factor criticality analysis of stage 4 recipe; settings: FIG. 27
Procedure: (§1) To assess the impact of elimination of each validated factor, we again used dynamic profile analysis and compared the expression level of genes of interest in the absence of each finalized factor while others are present.
In the stage 4 recipe, each of five finalized factors were removed while the other four factors were present and expression levels of forebrain genes were assessed compared to the presence of all 5 factors. MEF2C was reported to determine the PVALB-precursors cell fate (Mayer et al. (2018) Nature 555:457-462). We optimize MEF2C expression at this stage. […] (FIG. 27).

[8] = system: cells after termination of stage 4 treatment; test: HD-DoE 8-factor experiment for stage 5 recipe (JQ1, Indolactam-V, Oleic acid, BDNF, IGF-1, 2-phospho-L-Ascorbic acid, Albumax, MK2206), optimized for PVALB
Excerpt: To further guide the differentiation of forebrain-committed neural stem cells to PVALB interneuron cells at stage 5, we performed a HD-DoE experiment for 3 days after termination of stage 4 treatment. At this time, we focused on maximum expression of PVALB that was expressed in Parvalbumin (+) interneurons and minimum expression of Somatostatin that is another type of interneurons. This 8-factor experiment included JQ1, Indolactam-V, Oleic acid, BDNF, IGF-1, 2-phospho-L-Ascorbic acid, Albumax, MK2206. […] Using dynamic profile analysis, we modified the model to achieve the maximum expression level of PVALB simultaneously and therefore 2-phospho-L-ascorbic acid, BDNF, IGF1 were included while MK2206, Albumax, and JQ1 are excluded (FIG. 22). Considering the model at different optimization settings for maximum differentiation of cells toward ventral forebrain, the recipe for stage 5 of differentiation included BDNF, IGF-1, 2-phospho-L-ascorbic acid from this HD-Doe experiment.

[9] = system: stage 4 neural stem cells; test: factor criticality analysis of stage 5 recipe
Procedure: as §1
In the stage 5 recipe, each of seven finalized factors were removed while other factors were kept present and expression levels of PVALB and SST were assessed compared to the presence of all seven factors. […] 2-phospho-L-ascorbic acid, BDNF, IGF-1 were included in the stage 5 recipe (FIG. 28). […] Others were also found to increase the expression of somatostatin that was SST interneuron marker. So, they are excluded from the recipe and N2 was included in the stage 5 recipe (FIG. 29). […] Sodium pyruvate was included in the stage 5 recipe (FIG. 30).

[10] = dynamic profile analysis, FIG. 10
[11] = positive impact, model optimized for maximal expression of MEF2C at 453, FIG. 19

CCN(CC)S(=O)(=O)c1ccc(OC)c(N2CCN(C(=O)c3ccc(F)cc3C(F)(F)F)CC2)c1 [BT13]
impact on expression of PVALB ([1]; dynamic profile analysis, FIG. 26): significant negative impact

C=C[C@@]1(C)CC(=O)[C@]2(O)[C@@]3(C)[C@@H](O)CCC(C)(C)[C@@H]3[C@H](O)[C@H](OC(C)=O)[C@@]2(C)O1 [Forskolin]
factor contribution on expression of PVALB ([1]; positive, model optimized for maximum expression of PVALB, FIG. 25): 3.14

C[C@H](NC(=O)Cc1cc(F)cc(F)c1)C(=O)N[C@@H]1C(=O)N(C)c2ccccc2-c2ccccc21 [GSI-XX]
impact on expression of NKX2-1 [2]: increase its expression level | impact on expression of ASCL1 [3, 10]: Positive impact | impact on expression of LHX6 [3, 10]: Positive impact | factor contribution on expression of ASCL1 [3]: 14.1 and 14 | expression level of DLX1 when the effector is removed [4]: 50 | expression level of LHX6 when the effector is removed [4]: 140 | expression level of ASCL1 when the effector is removed [4]: 1200 | impact on expression of MEF2C [5]: negative effect | factor contribution on expression of MEF2C ([5]; significant negative effect, model optimized for maximal expression of MEF2C): 11.6 | impact on expression of PVALB [6]: negative impact

Cc1cc(SCc2sc(-c3ccc(C(F)(F)F)c(F)c3)nc2C)ccc1OCC(=O)O [GW0742]
factor contribution on expression of PVALB [6]: 19.499

O=[N+]([O-])c1ccc(Nc2nc(N3CCOCC3)nc(N3CCOCC3)n2)cc1 [MHY1458]
factor contribution on expression of ASCL1 [3]: below 2 | factor contribution on expression of MEF2C [5, 11]: 0.04 | effect on PVALB expression [7]: increase PVALB expression

CC(=O)O[C@@]12C[C@@H](C)[C@@]3(O)[C@@H](C=C(CO)C[C@]4(O)C(=O)C(C)=C[C@@H]34)[C@@H]1C2(C)C [Prostratin]
factor contribution on expression of PVALB [6]: 13.56

CCCC[C@@H](COC(=O)N(Cc1cccs1)Cc1cccs1)NC(=O)N[C@@H](CC(=O)OC)c1ccc2c(c1)OCO2 [THI0019]
impact on expression of PVALB [6]: negative impact

CCCC(CCC)C(=O)O [Valproic Acid, Valproic acid]
impact on expression of MEF2C [5]: positive impact | factor contribution on expression of MEF2C [5, 11]: 12 | effect on PVALB expression [7]: contribute to PVALB expression | effect on somatostatin expression [7]: minimal increase

Heparin
impact on expression of PVALB [6]: negative impact

IGF-1: insulin-like growth factor 1, growth factor, IGF1 pathway agonist
impact on expression of ASCL1 [3, 10]: positive effect | impact on expression of DLX1 [3, 10]: negative impact | impact on expression of LHX6 [3, 10]: positive effect | factor contribution on expression of ASCL1 [3]: 7 | expression level of DLX1 when the effector is removed [4]: 410 | expression level of LHX6 when the effector is removed [4]: 220 | expression level of ASCL1 when the effector is removed [4]: 1390 | impact on expression of MEF2C [5]: negative impact | factor contribution on expression of PVALB ([8]; important input for maximum expression of PVALB, FIG. 21): 12.8 | impact on expression of PVALB ([8]; model maximized for PVALB / dynamic profile, FIG. 21 and 22): increase its expression level; also recorded: positive impact | effect on expression of somatostatin ([9]; FIG. 28): did not change | contribution to expression of PVALB (Parvalbumin) ([9]; FIG. 28-30): positive contribution

Substance P: 11 amino acid neuropeptide, member of the tachykinin neuropeptide family (RPKPQQFFGLM; ends and bridges not checked; UniProt P20366 58-68, looked up)
impact on expression of MEF2C [5]: positive impact | factor contribution on expression of MEF2C [5, 11]: 9 | effect on MEF2C expression [7]: increase | effect on somatostatin expression [7]: decrease

B1: GDNF: Glial cell line-derived neurotrophic factor, activates the GDNF pathway (protein, UniProt P39905 78-211, looked up)
Glial cell line-derived …: SPDKQMAVLPRRERNRQAAAANPENSRGKGRRGQRGKNRGCVLTAIHLNVTDLGLGYETKEELIFRYCSGSCDAAETTYDKILKNLSRNRRLVSDKVGQACCRPIAFDDDLSFLDDNLVYHILRKHSAKRCGCI
impact on expression of MEF2C [5]: positive impact | factor contribution on expression of MEF2C [5, 11]: 5 | factor contribution on expression of PVALB [6]: 8.2 | effect on PVALB expression [7]: contribute to PVALB expression | effect on somatostatin expression [7]: minimal increase

Reference: patent US20230332103A1, “Methods and Compositions for Generating Human Forebrain Neural Progenitor Cells and for Maturation Thereof to Parvalbumin+ Interneurons” (Trailhead Biosystems Inc., priority 2021, published 2023)
